Where a name gives a salt, the structure may show the parent alone.
target: T1, SGK1 (Homo sapiens, UniProt O00141); test: SGK1 inhibition Assay B (Echo mass spectrometry of phosphorylated peptide product); format: biochemical; conditions: 60 min at room temperature
T1 sequence (O00141 1-431): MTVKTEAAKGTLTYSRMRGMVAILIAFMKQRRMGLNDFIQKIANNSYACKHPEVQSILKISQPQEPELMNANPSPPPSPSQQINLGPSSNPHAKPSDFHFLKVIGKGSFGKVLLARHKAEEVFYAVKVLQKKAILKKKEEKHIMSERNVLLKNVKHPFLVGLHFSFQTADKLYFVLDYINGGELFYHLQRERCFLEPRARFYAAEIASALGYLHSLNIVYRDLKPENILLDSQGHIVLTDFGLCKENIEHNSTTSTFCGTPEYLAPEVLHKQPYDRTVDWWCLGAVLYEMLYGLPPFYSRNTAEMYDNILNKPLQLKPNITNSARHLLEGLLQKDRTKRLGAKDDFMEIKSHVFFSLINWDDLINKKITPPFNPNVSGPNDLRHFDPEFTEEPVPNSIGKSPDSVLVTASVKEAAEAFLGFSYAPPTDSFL

Compared with `COC(=O)N1CC=C(c2cc(N3CCC[C@@H](NC(=O)c4sc(C)nc4OC4CC5CC(C4)N(C(C)C)C5)C3)c3c(N)ncnn23)C1` (single isomer, unassigned) [Example 953], `COC(=O)N1CC=C(c2cc(N3CCC[C@@H](NC(=O)c4sc(C)nc4OC4CCN(C(C)C)CC4)C3)c3c(N)ncnn23)C1` [Example 361, Methyl (R)-3-(4-amino-5-(3-(4-((1-isopropylpiperidin-4-yl)oxy)-2-methylthiazole-5-carboxamido)piperidin-1-yl)pyrrolo[2,1-f][1,2,4]triazin-7-yl)-2,5-dihydro-1H-pyrrole-1-carboxylate] is 3.7-fold higher in IC50: 7 nM for the first, 26 nM for the second. The first is the more potent here.

Going from `Cc1nc(OC2COC3(CCNCC3)C2)c(C(=O)N[C@@H]2CCCN(c3cc(-c4ccc(C(N)=O)c(F)c4)n4ncnc(N)c34)C2)s1` (single isomer, unassigned) [Example 954] to `Cc1nc(O[C@@H]2CCC[C@H](N(C)C)C2)c(C(=O)N[C@@H]2CCCN(c3cc(-c4ccc(C(N)=O)c(F)c4)n4ncnc(N)c34)C2)s1` (single isomer, unassigned; isomer 1) [Example 939], the IC50 falls from 4 nM to 0.9 nM (4.4-fold).

Compared with `Cc1nc(OC2CC3CCC2CN3C)c(C(=O)N[C@@H]2CCCN(c3cc(-c4ccc(-n5cnnn5)nc4)n4ncnc(N)c34)C2)s1` (single isomer, unassigned) [Example 992], `Cc1nc(OC2CC3CCC2CN3CCO)c(C(=O)N[C@@H]2CCCN(c3cc(-c4cnc(C#N)c(F)c4)n4ncnc(N)c34)C2)s1` (single isomer, unassigned) [Example 993] is 5-fold lower in IC50: 10 nM for the first, 2 nM for the second.

First: CCC1=C(c2cc(N3CCC[C@@H](NC(=O)c4sc(C)nc4O[C@H]4CC[C@@H](NC(C)CO)CC4)C3)c3c(N)ncnn23)COC1=O (single isomer, unassigned) [Example 1019]
Second: CCC1=C(c2cc(N3CCC[C@@H](NC(=O)c4sc(C)nc4OC4CCC(N[C@@H](C)COC)CC4)C3)c3c(N)ncnn23)COC1=O (single isomer, unassigned) [Example 1023]
The IC50 of the first is 1.6-fold lower: 0.5 nM for the first, 0.8 nM for the second.

`CCC1=C(c2cc(N3CCC[C@@H](NC(=O)c4sc(C)nc4O[C@H]4CC[C@@H](NC(C)CO)CC4)C3)c3c(N)ncnn23)COC1=O` (single isomer, unassigned) [Example 1020] and `CCC1=C(c2cc(N3CCC[C@@H](NC(=O)c4sc(C)nc4OC4CCC(N[C@H](C)COC)CC4)C3)c3c(N)ncnn23)COC1=O` (single isomer, unassigned) [Example 1024] are within 1.5-fold of each other in IC50: 1.1 nM for the first, 0.8 nM for the second.

First: CCC1=C(c2cc(N3CCC[C@@H](NC(=O)c4sc(C)nc4OC4CCC(N5CC(O)C5)CC4)C3)c3c(N)ncnn23)COC1=O (single isomer, unassigned) [Example 1021]
Second: COC(=O)N1CC=C(c2cc(N3CCC[C@@H](NC(=O)c4sc(C)nc4OC4CCNCC4)C3)c3c(N)ncnn23)C1 [Example 359, Methyl (R)-3-(4-amino-5-(3-(2-methyl-4-(piperidin-4-yloxy)thiazole-5-carboxamido)piperidin-1-yl)pyrrolo[2,1-f][1,2,4]triazin-7-yl)-2.5-dihydro-1H-pyrrole-1-carboxylate]
The IC50 of the first is 4.3-fold lower: 0.7 nM for the first, 3 nM for the second. The first is the more potent here.

First: CC(=O)N1CC=C(c2cc(N3CCC[C@@H](NC(=O)c4sc(Cl)cc4OC4CCC(N5CCOCC5)CC4)C3)c3c(N)ncnn23)C1 (single isomer, unassigned; isomer 1) [Example 936]
Second: CC(=O)N1CC=C(c2cc(N3CCC[C@@H](NC(=O)c4sc(C#N)cc4O[C@@H]4C[C@H]5CC[C@@H](C4)N5C)C3)c3c(N)ncnn23)C1 [Example 753]
The IC50 of the first is 6-fold lower: 2 nM for the first, 12 nM for the second.

Going from `Nc1ncnn2c(-c3ccc(-n4cnnn4)c(F)c3)cc(N3CCC[C@@H](NC(=O)c4sc(Cl)cc4OC4CCC(O)CC4)C3)c12` (single isomer, unassigned; isomer 2) [Example 935] to `CCOC1=C(C(=O)N[C@@H]2CCCN(c3cc(C4=CCN(C(C)=O)C4)n4ncnc(N)c34)C2)CN(c2ccc(F)cc2F)C1=O` [Example 756], the IC50 rises from 0.2 nM to 52 nM (260-fold).

First: COC(=O)N1CC=C(c2cc(N3CCC[C@@H](NC(=O)c4sc(C)nc4OC4CCN(C)CC4)C3)c3c(N)ncnn23)C1 [Example 360, Methyl (R)-3-(4-amino-5-(3-(2-methyl-4-((1-methylpiperidin-4-yl)oxy)thiazole-5-carboxamido)piperidin-1-yl)pyrrolo[2,1-f][1,2,4]triazin-7-yl)-2,5-dihydro-1H-pyrrole-1-carboxylate]
Second: COC1=C(C(=O)N[C@@H]2CCCN(c3cc(C4=CCN(C(C)=O)C4)n4ncnc(N)c34)C2)CN(C)C1=O [Example 754, (R)-N-(1-(7-(1-acetyl-2,5-dihydro-1H-pyrrol-3-yl)-4-aminopyrrolo[2,1-f][1,2,4]triazin-5-yl)piperidin-3-yl)-4-methoxy-1-methyl-5-oxo-2,5-dihydro-1H-pyrrole-3-carboxamide]
The IC50 of the first is 12-fold lower: 14 nM for the first, 163 nM for the second. The first is the more potent here.

First: CCOC1=C(C(=O)N[C@@H]2CCCN(c3cc(C4=CCN(C(C)=O)C4)n4ncnc(N)c34)C2)CN(c2ccc(OC)cc2)C1=O [Example 755, (R)-N-(1-(7-(1-acetyl-2,5-dihydro-1H-pyrrol-3-yl)-4-aminopyrrolo[2,1-f][1,2,4]triazin-5-yl)piperidin-3-yl)-4-ethoxy-1-(4-methoxyphenyl)-5-oxo-2,5-dihydro-1H-pyrrole-3-carboxamide]
Second: CCOC1=C(C(=O)N[C@@H]2CCCN(c3cc(C4=CCN(C(C)=O)C4)n4ncnc(N)c34)C2)CN(c2ccccc2)C1=O [Example 758, (R)-N-(1-(7-(1-acetyl-2,5-dihydro-1H-pyrrol-3-yl)-4-aminopyrrolo[2,1-f][1,2,4]triazin-5-yl)piperidin-3-yl)-4-ethoxy-5-oxo-1-phenyl-2,5-dihydro-1H-pyrrole-3-carboxamide, TFA salt]
The IC50 of the first is 6.8-fold lower: 21 nM for the first, 143 nM for the second.

Compared with `CCOC1=C(C(=O)N[C@@H]2CCCN(c3cc(C4=CCN(C(C)=O)C4)n4ncnc(N)c34)C2)CN(C2(C(F)(F)F)CC2)C1=O` [Example 757, (R)-N-(1-(7-(1-acetyl-2,5-dihydro-1H-pyrrol-3-yl)-4-aminopyrrolo[2,1-f][1,2,4]triazin-5-yl)piperidin-3-yl)-4-ethoxy-5-oxo-1-(1-(trifluoromethyl)cyclopro-pyl)-2,5-dihydro-1H-pyrrole-3-carboxamide], `CCOC1=C(C(=O)N[C@@H]2CCCN(c3cc(C4=CCN(C(C)=O)C4)n4ncnc(N)c34)C2)CN(CC(F)(F)F)C1=O` [Example 759, (R)-N-(1-(7-(1-acetyl-2,5-dihydro-1H-pyrrol-3-yl)-4-aminopyrrolo[2,1-f][1,2,4]triazin-5-yl)piperidin-3-yl)-4-ethoxy-5-oxo-1-(2,2,2-trifluoroethyl)-2,5-dihydro-1H-pyrrole-3-carboxamide] is 10-fold higher in IC50: 89 nM for the first, 887 nM for the second.

Going from `CN1CCN(c2cccc(C(=O)N[C@@H]3CCCN(c4cc(-c5ccc6[nH]ncc6c5)n5ncnc(N)c45)C3)n2)CC1` [Example 806, (R)-N-(1-(4-amino-7-(1H-indazol-5-yl)pyrrolo[2,1-f][1,2,4]triazin-5-yl)piperidin-3-yl)-6-(4-methylpiperazin-1-yl)picolinamide] to `CN1CCN(c2cccc(C(=O)N[C@@H]3CCCN(c4cc(-c5cnn(C(F)F)c5)n5ncnc(N)c45)C3)n2)CC1` [Example 807, (R)-N-(1-(4-amino-7-(1-(difluoromethyl)-1H-pyrazol-4-yl)pyrrolo[2,1-f][1,2,4]triazin-5-yl)piperidin-3-yl)-6-(4-methylpiperazin-1-yl)picolinamide, TFA salt], the IC50 falls from 134 nM to 41 nM (3.3-fold). The second is the more potent here.

Reference: patent publication US20260250290A1 (BRISTOL-MYERS SQUIBB COMPANY, priority 2023, published 2026)
